{
  "source": "patent US7094869B2",
  "about": "“Low molecular weight peptidomimetic growth hormone secretagogues” (Genentech, Inc., priority 1994, dated 2006)",
  "key": {"[1]": {"experiment": "GHRP induced dose dependent weight gain in rats (sc minipump infusion, 14 days)", "type": "in vivo, rat", "method": "Rat GHRH (1-43) was dissolved in the same buffer at 25 g/l.\nThe next day these osmotic pumps were inserted into rats.\nSerum chemistries were measured by standard automated procedures."}, "[2]": {"target": "rat pituitary cells (Rattus norvegicus, UniProt O08725)", "sequence (O08725 whole entry)": "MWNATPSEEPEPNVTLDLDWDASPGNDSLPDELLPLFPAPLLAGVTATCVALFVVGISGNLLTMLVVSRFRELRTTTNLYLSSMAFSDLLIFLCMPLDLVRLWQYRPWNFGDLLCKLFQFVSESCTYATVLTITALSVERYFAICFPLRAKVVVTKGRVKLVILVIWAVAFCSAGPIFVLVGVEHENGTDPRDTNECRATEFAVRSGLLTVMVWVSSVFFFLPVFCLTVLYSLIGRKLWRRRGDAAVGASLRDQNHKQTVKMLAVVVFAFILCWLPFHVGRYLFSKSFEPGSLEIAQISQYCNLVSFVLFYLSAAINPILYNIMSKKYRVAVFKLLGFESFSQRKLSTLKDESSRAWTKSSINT", "method_in_brief": "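Primary rat anterior pituitary cells, cultured three days in DME low glucose/10% FBS, were washed, pre-incubated twice for 15 min, then challenged 15 min with test compounds (DMSO ≤0.1%) at 37 °C. Released GH was measured by two-site ELISA; EC50 came from 4-parameter fits, mean of three to four independent determinations.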"}, "[3]": {"test_system": "pituitary cells", "experiment": "Calcium flux experiment (Indo-1 AM loaded pituitary cells)", "type": "cell-based, rat", "settings": "10 nM, 21 seconds after addition"}, "[4]": {"test_system": "growth hormone secretion", "experiment": "GHRP induced growth hormone secretion, intravenous administration (Rat IV)", "type": "in vivo", "method_in_brief": "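Female Sprague Dawley rats (24-30 days, 50-90 g) under intraperitoneal pentobarbitone received graded intravenous tail-vein peptide doses in pH 5.0 sodium acetate/mannitol buffer 20 min post-anaesthesia. Blood by cardiac puncture 10 min after dosing; serum GH measured by rat GH ELISA in duplicate.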"}, "[5]": {"settings": "high dose (inip) b b F K-NH2 100 μg/day, GHRH 600 μg/day, 14 d infusion"}},
  "note": "Entries after “also recorded” stand apart in the source; their conditions may differ. Read-outs that look alike come from different tables or passages of the source.",
  "data": [
    {"smiles": "NCCCC[C@H](NC(=O)[C@H](Cc1ccccc1)NC(=O)[C@@H](Cc1ccc2ccccc2c1)NC(=O)[C@@H](Cc1ccc2ccccc2c1)NC(=O)C1CCNCC1)C(N)=O", "note": "[(inip) b b F K amide, (inip)-DβNal-DβNal-Phe-Lys-amide]", "values": [
      {"measurement": "epiphyseal plate width", "setting": "[1]; 14 d infusion", "result": "no statistically significant increase"},
      {"measurement": "pituitary and kidney weight", "setting": "[1]; 14 d infusion", "result": "not affected"},
      {"measurement": "heart weight compared to excipient", "setting": "[1]; high dose 100 μg/day, GHRH 600 μg/day", "result": "tended to be increased"},
      {"measurement": "liver weight", "setting": "[1]; high dose (100 μg/day), 14 d infusion", "result": "10.14 ± 0.29", "unit": "g"},
      {"measurement": "spleen weight", "setting": "[1]; [5]", "result": "628 ± 26", "unit": "mg"},
      {"measurement": "thymus weight", "setting": "[1]; [5]", "result": "584 ± 34", "unit": "mg"},
      {"measurement": "liver weight", "setting": "[1]; low dose (4 μg/day), 14 d infusion", "result": "9.40 ± 0.37", "unit": "g"},
      {"measurement": "liver weight", "setting": "[1]; medium dose (20 μg/day), 14 d infusion", "result": "9.70 ± 0.29", "unit": "g"},
      {"measurement": "body weight gain compared to excipient", "setting": "[1]; sc minipump 14 days, (inip) b b F K-NH2 4, 20, 100 μg/d, GHRH 600 μg/d, 90 day old female rats", "result": "dose-related weight gain; also recorded: significant body weight and organ weight gain"},
      {"measurement": "concentration at which GH release is significantly (P<0.05) increased", "setting": "[2]; 15 min exposure", "result": 0.3, "unit": "nM"},
      {"measurement": "concentration by which GH release reaches a plateau", "setting": "[2]; 15 min exposure", "result": 1, "unit": "nM"},
      {"measurement": "fold more potent than GHRP-6", "setting": "[2]; ratio of pit cell EC50s", "result": "over 30 fold"},
      {"measurement": "EC50", "setting": "[2]; read-out: EC50 of the representative GH dose response, single representative experiment, 15 min exposure", "result": 0.16, "unit": "nM"},
      {"measurement": "EC50", "setting": "[2]; read-out: mean EC50, mean ± SE of independent EC50s", "result": "0.18 ± 0.04", "unit": "nM"},
      {"measurement": "Ca++ flux", "setting": "[3]; listed as (inip)-bbFK-NH2", "result": "increased Ca flux"},
      {"measurement": "Ca++ flux", "setting": "[3]; listed as (inip)bbFK-NH2", "result": "increased C^++ flux"},
      {"measurement": "RAT IV ED50", "setting": "[4]; Table III, iv injection, serum GH 10 min after injection", "result": 0.2, "unit": "µg"},
      {"measurement": "ED50 for induction of GH secretion", "setting": "[4]; acute intravenous injection, 80 gram rats, doses 1.0, 0.2, 0.04 μg/injection", "result": 0.2, "unit": "μg/rat"}
    ]}
  ]
}
